According to patent US6472541B2, “Protecting groups with increased photosensitivities” (The Regents of the University of California, priority 1998, dated 2002):

Experiments:
Type in all cases: physicochemical
[1] = One-photon photolysis quantum efficiency (UV irradiation, HPLC analysis)
Method: (§1) The electronic absorption and emission properties of the compounds were measured and the stability of the compounds toward hydrolysis in the dark was tested. Stability in the dark can be used to help identify photolabile protecting groups that can be used in a variety of different conditions. Specifically, the quantum efficiencies for one-photon excitation and rates of hydrolysis in the dark were determined.
[…] The duration of each irradiation period was controlled by an electronic shutter. Between each irradiation, a small aliquot (10 μL) of the solution was removed for analysis by reversed phase HPLC with a Betabasic-18 column eluted with a isocratic mixture of 60% acetonitrile and water containing 0.1% trifluoracetic acid at a flow rate of 0.8 mL/min, using absorbance detection at 325 nm. […] […] Quantum efficiencies were calculated as (Iσt90%)^−1, where I is the irradiation intensity in einsteins (cm^−2s^−1), σ is the decadic extinction coefficient in cm^2mol^−1 (10^3 times ε, the usual extinction coefficient in M^−1cm^−1), and t90% is the irradiation time in seconds for 90% conversion to product. […] Dark hydrolysis rates were measured similarly except without illumination.

[2] = Electronic absorption and emission properties; details: for λmax Wavelength of peak absorbance: pH 7.2; for ε Molar absorptivity at absorbance peak: pH 7.2, at absorbance peak
Method: Generally, chemicals and solvents were used directly as received unless otherwise noted. Acetonitrile, chloroform and dichloromethane were dried over 4A molecular sieves. Proton magnetic resonance spectra (^1H NMR) were recorded on a Gemini 200 MHz spectrometer (Varian; Palo Alto, Calif.) and reported in ppm (δ) downfield from tetramethylsilane with residual solvent peaks as the internal standards. Ultraviolet spectra were recorded on a Cary 3E UV-Visible spectrophotometer (Varian, Palo Alto, Calif., USA). Fluorescence spectra were recorded on a Fluorolog spectrofluorometer (SPEX; Edison, N.J., USA). Mass spectra were recorded on a electrospray mass spectrometer (5989B, Hewlett-Packard; Palo Alto, Calif., USA). Thin layer chromatography (TLC) and column chromatography were performed on precoated silica gel 60F-254 plates and 230-400 mesh silica gel 60 respectively (EM Separations; Gibbstown, N.J., USA). All manipulations of compounds sensitive to near ultraviolet light were performed under an orange safety lamp.
as §1

[3] = Mechanism of photolysis (triplet state lifetime)
Source text: The halogenated coumarin derivatives have good dark stability, and high one-photon and two-photon uncaging efficiencies. Without being bound to any particular theory, halogenation of the coumarin may have increased the two-photon cross-sections by lowering the pKa of the chromophore below physiological pH and promoting formation of the more strongly absorbing anion. Also, the heavy atoms may promote intersystem crossing to the triplet, which is believed to be the photochemically reactive state. […] The mechanism of photolysis of compound 7 and compound 23 indicate that the solvolysis occurs via the triplet state with a lifetime of about 1 μs. […] Although compound 6 had the highest cross-section, its photolysis was complicated by multiple secondary photoproducts. The monobromo compound (compound 5) was much more tractable and easily formed caged compounds.

[4] = Hydrolysis in the dark (dark stability); details: buffered solution, read-out: t0.5 Half-life for hydrolysis in the dark (converted)
Method: as §1
The photolysis quantum efficiencies for one-photon excitation were determined by irradiating a buffered solution of the substrate with 365 nm ultraviolet light from a B-100 mercury lamp (Spectronics Corp., Westbury, N.Y.). The duration of each irradiation period was controlled by an electronic shutter. Between each irradiation, a small aliquot (10 μL) of the solution was removed for analysis by reversed phase HPLC with a Betabasic-18 column eluted with a isocratic mixture of 60% acetonitrile and water containing 0.1% trifluoracetic acid at a flow rate of 0.8 mL/min, using absorbance detection at 325 nm. Optical densities at 365 nm were maintained near 0.1 so that inner-filtering of the irradiation could be neglected. […] Quantum efficiencies were calculated as (Iσt90%)^−1, where I is the irradiation intensity in einsteins (cm^−2s^−1), σ is the decadic extinction coefficient in cm^2mol^−1 (10^3 times ε, the usual extinction coefficient in M^−1cm^−1), and t90% is the irradiation time in seconds for 90% conversion to product. The total UV intensity, I, was measured by chemical actinometry with 6 mM potassium ferrioxalate in the same setup. Dark hydrolysis rates were measured similarly except without illumination.

[5] = In vitro measurements of two-photon uncaging and fluorescence cross-sections; details: pH 7.2
Method: Measurements of cross-sections for two-photon uncaging were carried out in microcuvettes with cylindrical cavities having a 1 cm path length and 20 μL total volume (Type 26F, Starna). Femtosecond infrared pulses from a mode-locked titanium-sapphire laser (Spectra-Physics TSUNAMI, pumped by a Spectra-Physics MILLENNIUM) were aimed along the axis of the sample chamber and focused in its center with a 25 mm focal length lens (06LXP003/076, Melles Griot, Irvine, Calif.) optimized for infrared lasers. The pulse parameters were estimated by replacing the caged compound by a solution of fluorescein, a reference compound of known fluorescence quantum yield Qf2 (0.9) and two-photon absorbance cross-section δaF (30 and 38 GM at 740 and 800 nm respectively). The time-averaged fluorescence <F(t)>collected by the detector is given by equation (1)
<F(t)>=0.5φQf2δaFCF<I0^2(t)>∫S^2(r)dV (1)
where φ is the collection efficiency of the detector, CF is the concentration of fluorescein, <I0^2(t)> is the mean squared light intensity, S(r) is a unitless spatial distribution function, and the integral is over the volume of the microcuvette. The fluorescence emitted at right angles to the laser beam was measured through a 535 nm bandpass filter in front of a silicon photodiode radiometer (IL1700, International Light). The collection efficiency φ was estimated as Ay/(4πR^2n^2), where A is the area of the detector (0.38 cm^2), y is the fraction of the integrated emission spectrum transmitted by the interference filter (0.377), measured separately in a spectrofluorometer, R is the distance from the center of the cuvette to the detector (3.83 cm), and n is the refractive index of water (1.333). For photolysis of a caged compound or substrate, the number NP of molecules of product formed per unit time is (eq. 2):
NP=0.5Qu2δaSCS<I0^2(t)>∫S^2(r)dV (2)
where Qu2, δaS, and CS are the quantum efficiency for two-photon uncaging, absorbance cross-section, and concentration of the substrate, respectively. NP was measured by HPLC sampling of the microcuvette as for the one-photon photolysis. The uncaging action cross-section δu2 (≡Qu2δaS) can therefore be estimated by (eq. 3): [formula]
Similarly, when the substrate is also fluorescent, its two-photon fluorescence action cross-section δf2S (≡Qf2SδaS) can be estimated as (eq. 4): [formula]
Here the subscripts S and F distinguish values for the substrate and for the fluorescein reference. If one assumes that one- and two-photon quantum efficiencies are the same, then δu2/Qu1 and δf2S/Qf1S should both equal δaS. In fact, the former values are typically about twice the latter. All of them are directly proportional to the assumed value of Qf2 for fluorescein.

[6] = 515 nm rather than 365 nm (footnote g)

COc1cc(COC(=O)CCC(N)C(=O)O)c([N+](=O)[O-])cc1OC (centres unmarked) [Compound 2, reference compound]
Qu1 Quantum efficiency for uncaging with one-photon excitation at 365 nm [1]: 0.004 | εQu1 One-photon action cross section (product of molar absorptivity and photolysis quantum yield) at 365 nm [1]: 29 M⁻¹ cm⁻¹ | ε Molar Absorptivity at 365 nm [2]: 7,300 M^−1cm^−1 | ε Molar Absorptivity at 400 nm [2]: 1,570 M^−1cm^−1 | λmax Wavelength of peak absorbance [2]: 345 nm | ε Molar absorptivity at absorbance peak [2]: 8,860 M^−1cm^−1

CCOP(=O)(OCC)OCc1cc(=O)oc2cc(O)c(Br)cc12 [Compound 23, 6-Bromo-7-hydroxycoumarin-4-ylmethyl diethylphosphate]
Lifetime of triplet state through which solvolysis occurs [3]: about 1 μs

CC(=O)OCc1cc(=O)oc2cc(O)c(Br)cc12 [Compound 5, 6-Bromo-7-hydroxycoumarin-4-ylmethyl acetate]
half-life [4]: 183 h | Qu1 Quantum efficiency for uncaging with one-photon excitation at 365 nm [1]: 0.037 | εQu1 One-photon action cross section (product of molar absorptivity and photolysis quantum yield) at 365 nm [1]: 548 M⁻¹ cm⁻¹ | δf (740 nm) fluorescence action cross-section for two-photon excitation [5]: 4.24 ± 10^−50 cm^4s/photon | δu (740 nm) uncaging action cross-section for two-photon excitation [5]: 1.99 ± 10^−50 cm^4s/photon | δf (800 nm) fluorescence action cross-section for two-photon excitation [5]: 1.41 ± 10^−50 cm^4s/photon | δu (800 nm) uncaging action cross-section for two-photon excitation [5]: 0.42 ± 10^−50 cm^4s/photon | Qf1 Quantum efficiency for fluorescence with one-photon excitation [2]: 0.22 | λem [2]: 474 nm | ε Molar Absorptivity at 365 nm [2]: 14,800 M^−1cm^−1 | ε Molar Absorptivity at 400 nm [2]: 5,000 M^−1cm^−1 | λmax Wavelength of peak absorbance [2]: 370 nm | ε Molar absorptivity at absorbance peak [2]: 15,000 M^−1cm^−1

O=c1ccc2c(CCl)c3ccc(O)cc3oc-2c1 [Compound 9]
Qu1 Quantum efficiency for uncaging with one-photon excitation (measured at 515 nm) [1, 6]: 0.038 | εQu1 One-photon action cross section (ε and Qu1 measured at 515 nm) [1, 6]: 1,565 M^−1cm^−1 | δu (740 nm) uncaging action cross-section for two-photon excitation [5]: 1.6 10^−50 cm^4s/photon | δf (800 nm) fluorescence action cross-section for two-photon excitation [5]: 68 10^−50 cm^4s/photon | δu (800 nm) uncaging action cross-section for two-photon excitation [5]: 2.6 10^−50 cm^4s/photon | λem [2]: 538 nm | ε Molar Absorptivity (measured at 515 nm) [2, 6]: 41,200 M^−1cm^−1

CC(=O)OCc1c(Br)c(=O)oc2c(Br)c(O)c(Br)cc12 [Compound 6, 3,6,8-Tribromo-7-hydroxycoumarin-4-ylmethyl acetate]
half-life [4]: 218 h | Qu1 Quantum efficiency for uncaging with one-photon excitation at 365 nm [1]: 0.065 | εQu1 One-photon action cross section (product of molar absorptivity and photolysis quantum yield) at 365 nm [1]: 630 M⁻¹ cm⁻¹ | δu (740 nm) uncaging action cross-section for two-photon excitation [5]: 0.96 ± 10^−50 cm^4s/photon | δu (800 nm) uncaging action cross-section for two-photon excitation [5]: 3.1 ± 10^−50 cm^4s/photon | Qf1 Quantum efficiency for fluorescence with one-photon excitation [2]: 0.16 | λem [2]: 498 nm | ε Molar Absorptivity at 365 nm [2]: 9,700 M^−1cm^−1 | ε Molar Absorptivity at 400 nm [2]: 15,700 M^−1cm^−1 | λmax Wavelength of peak absorbance [2]: 397 nm | ε Molar absorptivity at absorbance peak [2]: 15,900 M^−1cm^−1

N[C@@H](CCC(=O)OCc1cc(=O)oc2cc(O)c(Br)cc12)C(=O)O [Compound 8, γ-(6-Bromo-7-hydroxycoumarin-4-yl)methyl glutamate]
Qu1 Quantum efficiency for uncaging with one-photon excitation at 365 nm [1]: 0.019 | εQu1 One-photon action cross section (product of molar absorptivity and photolysis quantum yield) at 365 nm [1]: 364 M⁻¹ cm⁻¹ | δu (740 nm) uncaging action cross-section for two-photon excitation [5]: 0.89 ± 10^−50 cm^4s/photon | δu (800 nm) uncaging action cross-section for two-photon excitation [5]: 0.42 ± 10^−50 cm^4s/photon | ε Molar Absorptivity at 365 nm [2]: 19,200 M^−1cm^−1 | ε Molar Absorptivity at 400 nm [2]: 7,560 M^−1cm^−1 | λmax Wavelength of peak absorbance [2]: 369 nm | ε Molar absorptivity at absorbance peak [2]: 19,550 M^−1cm^−1

CC(=O)OCc1cc(=O)oc2cc(O)c(Cl)cc12 [Compound 4, 6-Chloro-7-hydroxycoumarin-4-ylmethyl acetate]
half-life [4]: 228 h | Qu1 Quantum efficiency for uncaging with one-photon excitation at 365 nm [1]: 0.019 | εQu1 One-photon action cross section (product of molar absorptivity and photolysis quantum yield) at 365 nm [1]: 302 M⁻¹ cm⁻¹ | δf (740 nm) fluorescence action cross-section for two-photon excitation [5]: 9.68 ± 10^−50 cm^4s/photon | δu (740 nm) uncaging action cross-section for two-photon excitation [5]: 1.07 ± 10^−50 cm^4s/photon | δf (800 nm) fluorescence action cross-section for two-photon excitation [5]: 3.22 ± 10^−50 cm^4s/photon | δu (800 nm) uncaging action cross-section for two-photon excitation [5]: 0.34 ± 10^−50 cm^4s/photon | Qf1 Quantum efficiency for fluorescence with one-photon excitation [2]: 0.37 | λem [2]: 474 nm | ε Molar Absorptivity at 365 nm [2]: 15,900 M^−1cm^−1 | ε Molar Absorptivity at 400 nm [2]: 5,000 M^−1cm^−1 | λmax Wavelength of peak absorbance [2]: 370 nm | ε Molar absorptivity at absorbance peak [2]: 16,000 M^−1cm^−1
